Experimental data published in PMC10746543, “Design principles for cyclin K molecular glue degraders” (Nature Chemical Biology, 2023).
Several values for one entry are separate records, joined by “and”; a condition that tells them apart may be missing. Identical values can stand only once. Like-named read-outs stand apart in the source and are kept apart here.

Experiments:
cyclin K = assay: Label-free quantitative mass spectrometry in MDA-MB-231 cells, cyclin K; format: cell-based, human
Procedure, shortened: (§1)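 MDA-MB-231 cells treated 5 h with 1 µM cyclin K degrader or DMSO. Lysates digested with LysC and trypsin, then analysed by label-free diaPASEF LC-MS on a TimsTOF Pro2 with directDIA search and MS1 precursor quantification. Protein abundances scaled and analysed with limma.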

CDK13 = target: T1, CDK13 (Homo sapiens, UniProt Q14004+Q16531); assay: Label-free quantitative mass spectrometry in MDA-MB-231 cells, CDK13; format: cell-based
T1 construct: endogenous in cells; host or cells: MDA-MB-231
T1 sequence (Q14004 whole entry): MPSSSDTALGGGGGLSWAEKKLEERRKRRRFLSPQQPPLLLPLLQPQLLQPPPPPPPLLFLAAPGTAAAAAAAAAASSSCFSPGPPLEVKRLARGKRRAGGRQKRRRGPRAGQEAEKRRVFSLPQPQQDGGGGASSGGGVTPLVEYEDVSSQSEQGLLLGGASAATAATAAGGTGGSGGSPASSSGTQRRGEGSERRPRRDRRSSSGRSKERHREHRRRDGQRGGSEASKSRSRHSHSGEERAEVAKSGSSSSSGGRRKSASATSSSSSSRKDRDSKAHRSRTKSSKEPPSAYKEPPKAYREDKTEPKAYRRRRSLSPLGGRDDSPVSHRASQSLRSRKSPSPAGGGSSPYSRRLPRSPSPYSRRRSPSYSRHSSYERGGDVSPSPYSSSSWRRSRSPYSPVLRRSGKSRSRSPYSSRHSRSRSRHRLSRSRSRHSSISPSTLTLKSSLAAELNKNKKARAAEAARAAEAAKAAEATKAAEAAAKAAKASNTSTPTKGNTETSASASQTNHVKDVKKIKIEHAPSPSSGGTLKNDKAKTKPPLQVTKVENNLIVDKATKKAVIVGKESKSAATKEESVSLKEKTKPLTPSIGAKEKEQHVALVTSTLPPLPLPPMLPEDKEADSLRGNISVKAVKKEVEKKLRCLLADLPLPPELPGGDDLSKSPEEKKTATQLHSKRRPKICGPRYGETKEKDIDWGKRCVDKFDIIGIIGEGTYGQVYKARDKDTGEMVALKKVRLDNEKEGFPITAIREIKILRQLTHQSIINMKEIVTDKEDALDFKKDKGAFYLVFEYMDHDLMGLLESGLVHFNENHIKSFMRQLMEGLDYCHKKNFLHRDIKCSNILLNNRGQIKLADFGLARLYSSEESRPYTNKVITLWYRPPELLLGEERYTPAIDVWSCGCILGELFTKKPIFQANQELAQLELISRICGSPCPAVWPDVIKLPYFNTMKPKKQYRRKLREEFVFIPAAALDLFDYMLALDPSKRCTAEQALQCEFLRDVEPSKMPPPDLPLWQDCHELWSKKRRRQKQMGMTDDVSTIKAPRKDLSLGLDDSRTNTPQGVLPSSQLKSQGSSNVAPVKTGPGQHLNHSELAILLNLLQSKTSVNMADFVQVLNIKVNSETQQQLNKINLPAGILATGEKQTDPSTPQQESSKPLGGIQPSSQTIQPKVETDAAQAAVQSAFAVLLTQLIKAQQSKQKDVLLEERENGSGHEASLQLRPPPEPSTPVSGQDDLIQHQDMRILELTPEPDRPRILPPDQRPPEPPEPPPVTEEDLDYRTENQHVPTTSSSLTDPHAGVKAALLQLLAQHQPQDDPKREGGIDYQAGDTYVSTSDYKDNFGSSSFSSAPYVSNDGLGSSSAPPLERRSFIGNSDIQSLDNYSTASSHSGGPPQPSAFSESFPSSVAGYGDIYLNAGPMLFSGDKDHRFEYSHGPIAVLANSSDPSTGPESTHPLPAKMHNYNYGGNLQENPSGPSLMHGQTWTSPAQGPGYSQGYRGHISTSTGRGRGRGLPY
T1 sequence (O75909 whole entry partner): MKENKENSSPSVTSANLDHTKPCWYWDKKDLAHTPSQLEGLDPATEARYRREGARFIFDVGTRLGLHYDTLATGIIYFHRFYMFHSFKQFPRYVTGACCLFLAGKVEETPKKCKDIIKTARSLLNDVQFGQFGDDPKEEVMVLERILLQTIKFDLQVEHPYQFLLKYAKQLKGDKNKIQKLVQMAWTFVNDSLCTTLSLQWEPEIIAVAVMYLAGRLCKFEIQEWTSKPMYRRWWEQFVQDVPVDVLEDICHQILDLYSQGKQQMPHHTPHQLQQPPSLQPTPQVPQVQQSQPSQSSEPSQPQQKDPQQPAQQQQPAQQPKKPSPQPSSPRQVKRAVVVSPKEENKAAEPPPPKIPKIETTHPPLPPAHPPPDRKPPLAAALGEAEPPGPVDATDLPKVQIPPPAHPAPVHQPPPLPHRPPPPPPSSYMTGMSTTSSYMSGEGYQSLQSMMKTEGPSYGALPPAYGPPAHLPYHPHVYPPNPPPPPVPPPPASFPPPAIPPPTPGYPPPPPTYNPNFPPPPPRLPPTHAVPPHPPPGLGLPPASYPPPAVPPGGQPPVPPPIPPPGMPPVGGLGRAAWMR
T1 sequence (Q16531 2-1140 limits assumed): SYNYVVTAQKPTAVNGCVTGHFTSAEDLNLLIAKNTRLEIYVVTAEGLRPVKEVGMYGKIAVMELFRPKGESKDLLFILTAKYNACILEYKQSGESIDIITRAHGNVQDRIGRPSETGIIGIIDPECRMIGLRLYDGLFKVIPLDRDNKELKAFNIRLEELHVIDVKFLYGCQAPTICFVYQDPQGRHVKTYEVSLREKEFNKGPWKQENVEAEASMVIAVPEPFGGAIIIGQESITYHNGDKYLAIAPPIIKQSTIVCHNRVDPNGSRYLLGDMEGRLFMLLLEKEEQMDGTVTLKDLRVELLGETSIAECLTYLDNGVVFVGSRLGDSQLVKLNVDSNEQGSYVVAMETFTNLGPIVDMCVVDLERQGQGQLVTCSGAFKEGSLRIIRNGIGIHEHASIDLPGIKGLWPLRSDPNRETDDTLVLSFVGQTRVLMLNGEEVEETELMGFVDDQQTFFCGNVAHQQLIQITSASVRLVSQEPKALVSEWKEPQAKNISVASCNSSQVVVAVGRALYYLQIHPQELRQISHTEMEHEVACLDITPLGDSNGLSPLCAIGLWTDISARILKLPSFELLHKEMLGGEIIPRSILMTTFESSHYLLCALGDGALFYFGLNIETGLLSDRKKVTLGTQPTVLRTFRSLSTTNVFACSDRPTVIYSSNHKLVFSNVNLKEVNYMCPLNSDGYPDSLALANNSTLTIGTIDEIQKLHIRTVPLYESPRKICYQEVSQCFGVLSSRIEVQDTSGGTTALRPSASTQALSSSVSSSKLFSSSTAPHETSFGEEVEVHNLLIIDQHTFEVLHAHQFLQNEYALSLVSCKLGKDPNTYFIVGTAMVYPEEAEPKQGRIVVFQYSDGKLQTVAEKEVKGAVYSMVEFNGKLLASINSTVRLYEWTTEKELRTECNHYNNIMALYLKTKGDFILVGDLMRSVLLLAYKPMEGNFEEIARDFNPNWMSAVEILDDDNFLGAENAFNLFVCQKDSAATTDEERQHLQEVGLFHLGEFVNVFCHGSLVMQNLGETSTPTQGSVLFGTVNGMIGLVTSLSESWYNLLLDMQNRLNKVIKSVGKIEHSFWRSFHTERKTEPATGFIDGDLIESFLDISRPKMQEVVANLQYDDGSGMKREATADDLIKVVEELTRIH
Procedure, shortened: as §1

CDK9–cyclin T = target: T2, CDK9–cyclin T (Homo sapiens, UniProt P50750); assay: Lanthascreen kinase binding assay, CDK9; details: for Lanthascreen TR-FRET signal (raw ratio), sheet CDK9: duplicates
T2 construct: purchased Thermo Fisher
T2 sequence (P50750 whole entry): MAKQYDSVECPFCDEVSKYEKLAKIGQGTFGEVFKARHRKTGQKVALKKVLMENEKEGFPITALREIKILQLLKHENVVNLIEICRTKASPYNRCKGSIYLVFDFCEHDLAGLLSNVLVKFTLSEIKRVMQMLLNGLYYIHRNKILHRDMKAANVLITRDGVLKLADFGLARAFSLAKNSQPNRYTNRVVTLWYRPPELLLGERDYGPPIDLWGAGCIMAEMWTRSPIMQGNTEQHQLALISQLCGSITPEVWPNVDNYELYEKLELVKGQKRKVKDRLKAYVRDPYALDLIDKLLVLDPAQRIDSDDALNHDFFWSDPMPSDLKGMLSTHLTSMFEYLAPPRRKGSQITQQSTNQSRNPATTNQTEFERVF
T2 sequence (O60563 whole entry partner): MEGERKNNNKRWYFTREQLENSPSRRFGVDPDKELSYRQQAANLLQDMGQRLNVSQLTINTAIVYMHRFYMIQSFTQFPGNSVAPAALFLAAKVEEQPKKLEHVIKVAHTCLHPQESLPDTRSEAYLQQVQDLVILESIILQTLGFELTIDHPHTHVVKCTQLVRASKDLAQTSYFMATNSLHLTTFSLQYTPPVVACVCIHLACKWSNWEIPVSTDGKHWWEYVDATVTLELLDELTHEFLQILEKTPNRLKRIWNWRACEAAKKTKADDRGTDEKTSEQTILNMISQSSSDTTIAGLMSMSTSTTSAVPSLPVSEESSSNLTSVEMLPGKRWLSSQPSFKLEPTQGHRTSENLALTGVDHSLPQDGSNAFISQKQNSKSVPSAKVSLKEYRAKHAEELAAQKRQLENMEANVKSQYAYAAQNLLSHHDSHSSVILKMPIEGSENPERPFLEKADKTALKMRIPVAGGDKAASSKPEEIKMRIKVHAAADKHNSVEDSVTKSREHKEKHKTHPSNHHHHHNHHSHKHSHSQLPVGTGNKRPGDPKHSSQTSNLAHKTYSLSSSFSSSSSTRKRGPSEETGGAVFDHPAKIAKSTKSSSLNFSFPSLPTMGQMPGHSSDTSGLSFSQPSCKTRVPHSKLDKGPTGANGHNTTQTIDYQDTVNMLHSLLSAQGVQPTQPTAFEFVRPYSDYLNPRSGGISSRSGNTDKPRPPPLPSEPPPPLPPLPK
Method: (§2) Lanthascreen experiments were performed using commercially available reagents (Thermo Fisher) and according to the manufacturer’s instructions.

CDK2–cyclin A = target: T3, CDK2–cyclin A (Homo sapiens, UniProt P24941); assay: Lanthascreen kinase binding assay, CDK2; details: for Lanthascreen signal, sheet CDK2: raw replicates
T3 construct: purchased Thermo Fisher
Method: as §2

[1] = test system: cyclin K–eGFP degradation reporter; assay: Cyclin K reporter stability analysis (dual-color cyclin K–eGFP reporter); format: cell-based, human; details: source data sheet correlations; read-out: DC50
Procedure, shortened: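 HEK293T–Cas9 cells carrying the cyclin K–eGFP reporter were seeded at 1 × 10^6 ml^−1 and exposed to drug or DMSO for 5 h. Flow cytometry gave geometric means of eGFP and mCherry in round, mCherry-positive cells. The eGFP/mCherry ratio was normalized to the mean of three DMSO controls.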

[2] = label-free quantitative MS, replicate values
[3] = normalised to DMSO = 1, replicate values

Cc1cccc(Nc2nc(CC(=O)Nc3ncc(C)s3)cs2)n1 [HQ461]
cyclin K abundance (label-free MS) (cyclin K; individual replicates, sheet EDF7): 622.336 and 691.814 | cyclin K abundance (label-free MS) (cyclin K; [2]): 622.336 and 691.814 | CCNK peptide count (DMSO-normalised) (cyclin K; [3]): 0.34 and 0.3848 | average CCNK peptide count (cyclin K; sheet EDF7): 657.075 | CDK13 peptide count (CDK13; [2]): 467.381 and 369.821 | CDK13 peptide count (DMSO-normalised) (CDK13; [3]): 0.6953 and 0.5683 | IC50 (CDK9–cyclin T; Lanthascreen, read-out: CDK9 inhibition): > 10000 nM | IC50 (CDK9–cyclin T; Supplementary Table 2, read-out: Lanthascreen IC50 [nM] CDK9): > 10000 nM | Lanthascreen TR-FRET signal (raw ratio), sheet CDK9 (CDK9–cyclin T; compound 0.038147 nM, second titration set (r13)): 0.01409 and 0.01416 | Lanthascreen TR-FRET signal (raw ratio), sheet CDK9 (CDK9–cyclin T; compound 0.152588 nM, second titration set (r13)): 0.01468 and 0.01413 | Lanthascreen TR-FRET signal (raw ratio), sheet CDK9 (CDK9–cyclin T; compound 0.610352 nM, second titration set (r13)): 0.01464 and 0.01471 | Lanthascreen TR-FRET signal (raw ratio), sheet CDK9 (CDK9–cyclin T; compound 1.02544 nM, first titration set (r1)): 0.013 and 0.01376 | Lanthascreen TR-FRET signal (raw ratio), sheet CDK9 (CDK9–cyclin T; compound 3.15521 nM, first titration set (r1)): 0.01501 and 0.01445 | Lanthascreen TR-FRET signal (raw ratio), sheet CDK9 (CDK9–cyclin T; compound 9.46563 nM, first titration set (r1)): 0.01436 and 0.01453 | Lanthascreen TR-FRET signal (raw ratio), sheet CDK9 (CDK9–cyclin T; compound 9.76563 nM, second titration set (r13)): 0.01408 and 0.01448 | Lanthascreen TR-FRET signal (raw ratio), sheet CDK9 (CDK9–cyclin T; compound 31.5521 nM, first titration set (r1)): 0.01309 and 0.01275 | Lanthascreen TR-FRET signal (raw ratio), sheet CDK9 (CDK9–cyclin T; compound 39.0625 nM, second titration set (r13)): 0.01393 and 0.01389 | Lanthascreen TR-FRET signal (raw ratio), sheet CDK9 (CDK9–cyclin T; compound 99.3891 nM, first titration set (r1)): 0.01397 and 0.01502 | Lanthascreen TR-FRET signal (raw ratio), sheet CDK9 (CDK9–cyclin T; compound 156.25 nM, second titration set (r13)): 0.01402 and 0.0137 | Lanthascreen TR-FRET signal (raw ratio), sheet CDK9 (CDK9–cyclin T; compound 315.521 nM, first titration set (r1)): 0.01247 and 0.01162 | Lanthascreen TR-FRET signal (raw ratio), sheet CDK9 (CDK9–cyclin T; compound 625 nM, second titration set (r13)): 0.01303 and 0.01336 | Lanthascreen TR-FRET signal (raw ratio), sheet CDK9 (CDK9–cyclin T; compound 2500 nM, second titration set (r13)): 0.01244 and 0.01203 | Lanthascreen TR-FRET signal (raw ratio), sheet CDK9 (CDK9–cyclin T; compound 3155.21 nM, first titration set (r1)): 0.007103 and 0.007563 | Lanthascreen TR-FRET signal (raw ratio), sheet CDK9 (CDK9–cyclin T; compound 10000 nM, second titration set (r13)): 0.01094 and 0.01086 | Lanthascreen TR-FRET signal (raw ratio), sheet CDK9 (CDK9–cyclin T; compound 10002 nM, first titration set (r1)): 0.01268 and 0.01049 | Lanthascreen signal, sheet CDK2 (CDK2–cyclin A; Compound 0.038147 nM, experiment r13-r23): 0.01269 and 0.01279 | Lanthascreen signal, sheet CDK2 (CDK2–cyclin A; Compound 0.152588 nM, experiment r13-r23): 0.01374 and 0.01273 | Lanthascreen signal, sheet CDK2 (CDK2–cyclin A; Compound 0.610352 nM, experiment r13-r23): 0.01372 and 0.01331 | Lanthascreen signal, sheet CDK2 (CDK2–cyclin A; Compound 1.02544 nM, experiment r1-r11): 0.009631 and 0.01041 | Lanthascreen signal, sheet CDK2 (CDK2–cyclin A; Compound 3.15521 nM, experiment r1-r11): 0.01056 and 0.008974 | Lanthascreen signal, sheet CDK2 (CDK2–cyclin A; Compound 9.46563 nM, experiment r1-r11): 0.009472 and 0.0097 | Lanthascreen signal, sheet CDK2 (CDK2–cyclin A; Compound 9.76563 nM, experiment r13-r23): 0.01395 and 0.01369 | Lanthascreen signal, sheet CDK2 (CDK2–cyclin A; Compound 31.5521 nM, experiment r1-r11): 0.0114 and 0.01012 | Lanthascreen signal, sheet CDK2 (CDK2–cyclin A; Compound 39.0625 nM, experiment r13-r23): 0.01257 and 0.0126 | Lanthascreen signal, sheet CDK2 (CDK2–cyclin A; Compound 99.3891 nM, experiment r1-r11): 0.01033 and 0.009406 | Lanthascreen signal, sheet CDK2 (CDK2–cyclin A; Compound 156.25 nM, experiment r13-r23): 0.01318 and 0.01113 | Lanthascreen signal, sheet CDK2 (CDK2–cyclin A; Compound 315.521 nM, experiment r1-r11): 0.009414 and 0.009861 | Lanthascreen signal, sheet CDK2 (CDK2–cyclin A; Compound 625 nM, experiment r13-r23): 0.01295 and 0.0131 | Lanthascreen signal, sheet CDK2 (CDK2–cyclin A; Compound 2500 nM, experiment r13-r23): 0.01303 and 0.01312 | Lanthascreen signal, sheet CDK2 (CDK2–cyclin A; Compound 3155.21 nM, experiment r1-r11): 0.008384 and 0.008441 | Lanthascreen signal, sheet CDK2 (CDK2–cyclin A; Compound 10000 nM, experiment r13-r23): 0.01252 and 0.01202 | Lanthascreen signal, sheet CDK2 (CDK2–cyclin A; Compound 10002 nM, experiment r1-r11): 0.01042 and 0.01107 | IC50 (CDK2–cyclin A; Lanthascreen, read-out: CDK2 inhibition): > 10000 nM | IC50 (CDK2–cyclin A; Supplementary Table 2, read-out: Lanthascreen IC50 [nM] CDK2): > 10000 nM | DC50 [1]: 0.493 µM
